Read-outs that look alike come from different tables or passages of the source.
Legend:
Assay type in all cases: cell-based
[1] = tested on: MCF-7 cells; experiment: Alamar blue fluorescence viability (IC50), MCF-7
Description: (§1) Cancer Cell Lines: Culturing Conditions and Validation. All cell lines were cultured at 37° C. with 5% CO2. All ERα-positive cell lines were grown in media lacking phenol red. MCF-7 were grown in EMEM with 10% FBS and 1% penicillin-streptomycin (P/S). T47D were cultured in MEM with 10% FBS and 1% P/S. TYS and TDG cells were grown in MEM supplemented with 10% CD-FBS and 1% P/S. HCT-116 and MDA-MB-231 cells were cultured in RPMI-1640 supplemented with 10% FBS and 1% P/S. MDA-MB-436 cells were cultured in DMEM supplemented with 10% FBS and 1% P/S. HT-29 were cultured in McCoy's media supplemented with 10% FBS and 1% P/S. All cell lines were used directly from ATCC stocks and/or have been further authenticated using PowerPlex16HS Assay (Promega) as described previously.^54 In short, >1 million cells were harvested and lysed using the cell lysis buffer (50 mM Tris, 50 mM EDTA, 25 mM sucrose, 100 mM NaCl, 1% SDS, pH 8). DNA extraction and short tandem repeats (STRs) profiling for each cell line were carried out at the University of Arizona Genetics Core (UAGC). Autosomal STR profiles were compared to reference databases such as ATCC, DSMZ, and JCRB.
(§2) Alamar Blue Fluorescence for Anticancer Activity (IC50). 2,000-15,000 cells per well were seeded a 96-well plate. Cells were allowed to adhere before DMSO stock solutions of test compounds were added to each well with a final concentration of DMSO in each well=1%; final volume: 100 μL. At the end of the desired incubation time (e.g., 24 or 72 hours), media in each well was aspirated and new fresh media (no compound, 100 μL) was added. Alamar blue solution (4 mg resazurin per 40 mL PBS) was then added (10 μL). After 2-6 hours incubation, each well's fluorescence (λexcit.=555 nm, λemission.=585 nm) was measured using a SpectraMax M3 plate reader (Molecular Devices). Percent dead was determined by comparison to a 100% dead control: 100 μM raptinal treated cells. Dose dependent curves and IC50 were calculated using Origin Pro V10.

[2] = tested on: MDA-MB-231; experiment: Alamar blue fluorescence viability (IC50), MDA-MB-231; conditions: for Fold Change: Average Fold Change between 24/72 hr IC50 values for MCF-7 and MDA-MB-231; for IC50: MDA-MB-231, ERα negative
Description: as §1, §2

[3] = tested on: HCT-116; experiment: Alamar blue fluorescence viability (IC50), HCT-116; conditions: for Fold Change: Average Fold Change between 24/72 hr IC50 values for MCF-7 and HCT-116; for IC50: HCT-116, ERα negative
Description: as §1, §2

[4] = tested on: HT-29; experiment: Alamar blue fluorescence viability (IC50), HT-29; conditions: for Fold Change: Average Fold Change between 24/72 hr IC50 values for MCF-7 and HT-29; for IC50: HT-29, ERα negative
Description: as §1, §2

[5] = MCF-7, ERα positive, 24 hr, read-out: IC50 24 hr
[6] = MCF-7, ERα positive, 72 hr, read-out: IC50 72 hr
[7] = Homo sapiens, MCF7, MCF-7 cells, 24 hours, Alamar blue, mean ± s.e.m., read-out: IC50

O=C1Nc2c(C(F)(F)F)cccc2C1(c1ccc(O)cc1)N1CCCC(F)(F)C1 (centres unmarked)
IC50 [1, 5]: 0.039 ± 0.01 µM
IC50 [1, 6]: 0.033 ± 0.001 µM
Fold Change [2]: 667
IC50 ([2]; 24 hr, read-out: IC50 24 hr): 49 ± 4 µM
IC50 ([2]; 72 hr, read-out: IC50 72 hr): 22 ± 1 µM
Fold Change [3]: 636
IC50 ([3]; 24 hr, read-out: IC50 24 hr): 38 ± 4 µM
IC50 ([3]; 72 hr, read-out: IC50 72 hr): 21 ± 4 µM
Fold Change [4]: 758
IC50 ([4]; 24 hr, read-out: IC50 24 hr): 29 ± 1 µM
IC50 ([4]; 72 hr, read-out: IC50 72 hr): 25 ± 3 µM

O=C1Nc2c(C(F)(F)F)cccc2C1(c1ccc(O)cc1)N1CCC(F)(F)C1 (centres unmarked)
IC50 [1, 5]: 0.017 ± 0.001 µM
IC50 [1, 6]: 0.022 ± 0.001 µM
Fold Change [2]: 1455
IC50 ([2]; 24 hr, read-out: IC50 24 hr): 51 ± 5 µM
IC50 ([2]; 72 hr, read-out: IC50 72 hr): 32 ± 3 µM
Fold Change [3]: 909
IC50 ([3]; 24 hr, read-out: IC50 24 hr): 45 ± 5 µM
IC50 ([3]; 72 hr, read-out: IC50 72 hr): 20 ± 6 µM
Fold Change [4]: 1364
IC50 ([4]; 24 hr, read-out: IC50 24 hr): 35 ± 6 µM
IC50 ([4]; 72 hr, read-out: IC50 72 hr): 30 ± 5 µM

O=C1Nc2c(C(F)(F)F)cccc2C1(c1ccc(O)cc1)N1CC(F)(F)C1 (centres unmarked)
IC50 [1, 6]: 0.117 ± 0.003 µM

O=C1Nc2c(C(F)(F)F)cccc2C1(c1ccc(O)cc1)N1CCC(F)(F)CC1 (racemic) [Compound 2, 3-(4,4-difluoropiperidin-1-yl)-3-(4-hydroxyphenyl)-7-(trifluoromethyl)indolin-2-one]
IC50 [1, 7]: 0.035 µM

O=C1Nc2c(C(F)(F)F)cccc2[C@@]1(c1ccc(O)cc1)N1CCC(F)CC1 [(R)-22, (R)-3-(4-fluoropiperidin-1-yl)-3-(4-hydroxyphenyl)-7-(trifluoromethyl)indolin-2-one]
anticancer activity against MCF-7 cells (in words) ([1]; MCF-7 cells): lack of potent activity

O=C1Nc2c(C(F)(F)F)cccc2[C@]1(c1ccc(O)cc1)N1CC(F)(F)C(F)(F)C1 [(S)-26, (S)-3-(4-hydroxyphenyl)-3-(3,3,4,4-tetrafluoropyrrolidin-1-yl)-7-(trifluoromethyl) indolin-2-one]
anticancer activity against MCF-7 cells (in words) ([1]; MCF-7 cells): inactive

O=C1Nc2c(C(F)(F)F)cccc2C1(c1ccc(OC(F)(F)F)cc1)c1ccc(O)c(F)c1 (centres unmarked) [Compound 5, 3-(3-fluoro-4-hydroxyphenyl)-3-(4-(trifluoromethoxy)phenyl)-7-(trifluoromethyl)indolin-2-one]
IC50 [1, 7]: 0.033 µM

O=C1Nc2c(C(F)(F)F)cccc2C1(c1ccc(OC(F)(F)F)cc1)c1cc(F)c(O)c(F)c1 (centres unmarked) [Compound 6, 3-(3,5-difluoro-4-hydroxyphenyl)-3-(4-(trifluoromethoxy)phenyl)-7-(trifluoromethyl)indolin-2-one]
IC50 [1, 7]: > 1 µM
anticancer activity against MCF-7 cells (in words) ([1]; MCF-7 cells): loss of activity

O=C1Nc2c(C(F)(F)F)cccc2C1(c1ccc(OC(F)(F)F)cc1)c1ccc(O)cc1F (centres unmarked) [Compound 7, 3-(2-fluoro-4-hydroxyphenyl)-3-(4-(trifluoromethoxy)phenyl)-7-(trifluoromethyl)indolin-2-one]
IC50 [1, 7]: 0.177 µM

O=C1Nc2c(C(F)(F)F)cccc2C1(c1ccc(OC(F)(F)F)cc1)c1c(F)cc(O)cc1F (centres unmarked) [Compound 8, 3-(2,6-difluoro-4-hydroxyphenyl)-3-(4-(trifluoromethoxy)phenyl)-7-(trifluoromethyl)indolin-2-one]
IC50 [1, 7]: 0.549 µM

O=C1Nc2c(C(F)(F)F)cccc2C1(c1ccc(OC(F)(F)F)cc1)c1ccc(OC(F)(F)F)cc1 [Compound 9, 3,3-bis(4-(trifluoromethoxy)phenyl)-7-(trifluoromethyl)indolin-2-one]
IC50 [1, 7]: > 1 µM
anticancer activity against MCF-7 cells (in words) ([1]; MCF-7 cells): lack of activity

O=C1Nc2c(C(F)(F)F)cccc2C1(c1ccc(OC(F)(F)F)cc1)c1ccc(O)c(O)c1 (centres unmarked) [Compound 10, 3-(3,4-dihydroxyphenyl)-3-(4-(trifluoromethoxy)phenyl)-7-(trifluoromethyl)indolin-2-one]
IC50 [1, 7]: 0.049 µM

Cc1cc(C2(c3ccc(OC(F)(F)F)cc3)C(=O)Nc3c(C(F)(F)F)cccc32)ccc1O (centres unmarked) [Compound 11, 3-(4-hydroxy-3-methylphenyl)-3-(4-(trifluoromethoxy)phenyl)-7-(trifluoromethyl)indolin-2-one]
IC50 [1, 7]: > 1 µM

Cc1cc(C2(c3ccc(OC(F)(F)F)cc3)C(=O)Nc3c(C(F)(F)F)cccc32)cc(C)c1O (centres unmarked) [Compound 12, 3-(4-hydroxy-3,5-dimethylphenyl)-3-(4-(trifluoromethoxy)phenyl)-7-(trifluoromethyl)indolin-2-one]
IC50 [1, 7]: > 1 µM

CC(C)c1cc(C2(c3ccc(OC(F)(F)F)cc3)C(=O)Nc3c(C(F)(F)F)cccc32)cc(C(C)C)c1O (centres unmarked) [Compound 13, 3-(4-hydroxy-3,5-diisopropylphenyl)-3-(4-(trifluoromethoxy)phenyl)-7-(trifluoromethyl)indolin-2-one]
IC50 [1, 7]: > 1 µM

O=C1Nc2c(C(F)(F)F)cccc2C1(c1ccc(O)cc1)N1CCCCC1 (centres unmarked) [Compound 16, 3-(4-hydroxyphenyl)-3-(piperidin-1-yl)-7-(trifluoromethyl)indolin-2-one]
IC50 [1, 7]: > 1 µM

CC1CN(C2(c3ccc(O)cc3)C(=O)Nc3c(C(F)(F)F)cccc32)CCC1(F)F (centres unmarked) [Compound 17, 3-(4,4-difluoro-3-methylpiperidin-1-yl)-3-(4-hydroxyphenyl)-7-(trifluoromethyl)indolin-2-one]
IC50 [1, 7]: 0.07 µM

O=C1Nc2c(C(F)(F)F)cccc2C1(c1ccc(O)cc1)N1CCOCC1 (centres unmarked) [Compound 18, 3-(4-hydroxyphenyl)-3-morpholino-7-(trifluoromethyl)indolin-2-one]
IC50 [1, 7]: > 1 µM

O=C1Nc2c(C(F)(F)F)cccc2C1(c1ccc(O)cc1)N1CCCCCC1 (centres unmarked) [Compound 19, 3-(azepan-1-yl)-3-(4-hydroxyphenyl)-7-(trifluoromethyl)indolin-2-one]
IC50 [1, 7]: > 1 µM

O=C1Nc2c(C(F)(F)F)cccc2C1(c1ccc(O)cc1)N1CCC(O)CC1 (centres unmarked) [Compound 20, 3-(4-hydroxyphenyl)-3-(4-hydroxypiperidin-1-yl)-7-(trifluoromethyl)indolin-2-one]
IC50 [1, 7]: > 1 µM

O=C1Nc2c(C(F)(F)F)cccc2C1(c1ccc(O)cc1)N1CCC(OC(F)(F)F)CC1 (centres unmarked) [Compound 21, 3-(4-hydroxyphenyl)-3-(4-(trifluoromethoxy)piperidin-1-yl)-7-(trifluoromethyl)indolin-2-one]
IC50 [1, 7]: 0.135 µM

O=C1Nc2c(C(F)(F)F)cccc2C1(c1ccc(O)cc1)N1CC(F)(F)C(F)(F)C1 (centres unmarked) [drawing 36]
IC50 [1, 5]: 0.005 ± 0.001 µM
IC50 [1, 6]: 0.004 ± 0.001 µM
Fold Change [2]: 3500
IC50 ([2]; 24 hr, read-out: IC50 24 hr): 22 ± 2 µM
IC50 ([2]; 72 hr, read-out: IC50 72 hr): 14 ± 1 µM
Fold Change [3]: 3750
IC50 ([3]; 24 hr, read-out: IC50 24 hr): 24 ± 2 µM
IC50 ([3]; 72 hr, read-out: IC50 72 hr): 15 ± 3 µM
Fold Change [4]: 3750
IC50 ([4]; 24 hr, read-out: IC50 24 hr): 25 ± 1 µM
IC50 ([4]; 72 hr, read-out: IC50 72 hr): 15 ± 2 µM

O=C1Nc2c(C(F)(F)F)cccc2C1(c1ccc(O)cc1)N1CC(F)(F)C(F)(F)C1 (centres unmarked) [drawing 37]
IC50 [1, 5]: > 1 µM
IC50 [1, 6]: > 1 µM
